Data taken from publication PMC10154249, “Unique progerin C-terminal peptide ameliorates Hutchinson–Gilford progeria syndrome phenotype by rescuing BUBR1” (Nature Aging, 2023).
Numbered stars: 1 amine (or outer) side, 2 acyl side, 3 side chain; on linkers, the order of the positions; unused ones are H or OH. Bridge positions count the residues as written; N and C are the ends. Square brackets hold non-standard residues; d marks the D form. Peptide text beside a SMILES is read from it. I, II: the chains in the order shown. Actinocin(9to1) = Cc1c2oc3c(C)ccc(C(=O)[*:1])c3nc-2c(C(=O)[*:2])c(N)c1=O; NMeV = CN[C@H](C(=O)O)C(C)C; Sar = CNCC(=O)O

Experiments:
HGADFN003 cells [1] = experiment: SA-β-gal staining of HGADFN003 cells; assay type: cell-based, human; conditions: Fig.1m, HGADFN003, Vector 65, 68, 69, 65, P<0.0001
Protocol: (§1) SA-β-gal staining was performed as previously described. Cells were fixed in 0.5% glutaraldehyde for 15 min at room temperature, washed three times with PBS (pH 6.0) containing 1 mM MgCl2 and exposed overnight 37 °C to containing 1 mg ml^–1 5-bromo-4-chloro-3-indolyl-β-D-galactopyranoside (MCE, catalog no. HY-15934), 0.12 mM potassium ferrocyanide (Sigma, catalog no. P3289), 0.12 mM potassium ferricyanide (Sigma, catalog no. P8131) and 1 mM MgCl2 PBS buffer (pH 6.0). Cells were washed three times with H2O and observed under a microscope (OLYMPUS CKX53). SA-β-gal positive cells were quantified by investigators who were blinded to the identity of the analyzed cell.

[2] = tested on: IMR90 and HGADFN003 cells; experiment: Metaphase chromosome spread assay, aneuploid cells; assay type: cell-based, human
Protocol: For the metaphase chromosome spread assay, 1.5 × 10^6 cells were seeded in a 6 cm dish and incubated for 24 h with fresh medium. Then, colchicine was added to a final concentration of 0.2 μg ml^–1 and the cells were incubated at 37 °C for 2 h. After digestion, we collected and rinsed the cells with PBS. The cells were centrifuged at 160g for 10 min. Then, 1 M KCl was added to a final concentration of 0.075 mol l^–1 and the samples were incubated at 37 °C for 20 min. The cells were centrifuged, and the supernatant aspirated. The pellet was resuspended, and 1 ml methanol:glacial acetic acid (3:1) solution was added. The sample was rested at room temperature for 10 min. Then, the cells were centrifuged at 160g for 10 min. The supernatant was aspirated, and the pellet resuspended in 1 ml fixative for 30 min. The cells were centrifuged and the pellet was suspended in 1 ml fixative again for 30 min. The cells were centrifuged at 160g for 10 min and the supernatant aspirated. The pellet was then resuspended in a small volume of fixative (typically less than 500 μl) until the cell suspension appeared lightly milky. A small quantity of the cell suspension was held vertically in a pipette with the end about 10 cm above the slide. A single drop was released from this height onto the slide and allowed to air dry. The cells were then incubated with 500 nM of DAPI (Invitrogen) for 10 min. Slides were examined with an Olympus BX53 fluorescence microscope and the images were captured by using the Olympus IPP v.7.0 software. Aneuploid cells were quantified by investigators who were blinded to the identity of the analyzed cell.

IMR90 cells [3] = experiment: Ki67 immunofluorescence of IMR90 cells; assay type: cell-based, human; conditions: Fig.1k, IMR90
Protocol: (§2) Immunofluorescence was performed as described previously. Cells were plated on cover slips in 12-well plates, left overnight before the treatment. Cells were fixed in 1% formaldehyde in culture medium for 10 min at 37 °C and permeabilized with 0.2% Triton X-100 in PBS for 10 min at room temperature. Cells were washed twice in PBS and blocked for 1 h with 5% BSA in PBS and then incubated with primary antibodies at 4 °C overnight, washed three times in PBS and incubated with secondary antibodies for 1 h at room temperature. Cell nuclei were counterstained with a 500 nM concentration of 4,6-diamidino-2-phenylindole (DAPI) (Sigma). Images were acquired by a fluorescence microscope (OLYMPUS FV-1000, Carl Zeiss LSM880 or Leica DMi8) and analyzed with software NIS-Elements AR v.5.0.1 (Nikon), FLUOVIEW v.4.2b (OLYMPUS), ZEN v.2.3 SP1 (Carl Zeiss) and Leica Application Suite X v.3.6.0.24 (Leica). Cells were quantified by investigators who were blinded to the identity of the analyzed cell.

IMR90 cells [4] = experiment: SA-β-gal staining of IMR90 cells (progerin, BUBR1, shBUBR1); assay type: cell-based, human; conditions: Fig.1i
Protocol: as §1

HGADFN003 cells [5] = experiment: Ki67 immunofluorescence of HGADFN003 cells; assay type: cell-based, human; conditions: Fig.1o, HGADFN003, Vector 45, 38, 49, P=0.0031
Protocol: as §2

[6] = tested on: progerin–BUBR1 interaction; experiment: CoIP of progerin and BUBR1 in HEK-293T cells; assay type: cell-based; conditions: HEK-293T co-transfected with truncated mutants and HA-progerin
Protocol: Detailed descriptions of CoIP were described previously[55],[56]. Cells were harvested and washed three times in cold PBS, then lysed in CoIP buffer (25 mM Tris-HCl (pH 7.5), 150 mM KCl, 5 mM EDTA, and 0.5% NP-40) plus protease inhibitor cocktail tablet (Roche). Incubate on ice and shock lysates on the vortex shaker 15 times for 30 s each. Microcentrifuge in 12,000g for 15 min at 4 °C, collect the supernatant, and incubate with 3 μg primary antibodies with gentle shaking overnight at 4 °C, followed by adding 20–40 μl Pure Proteome Protein A/G Mix Magnetic Beads (Millipore, catalog no. […]02) for 3 h. Wash the beads three times with 1 ml CoIP buffer for 8 min each, resuspend in 50 μl 1× loading buffer, and incubate at 100 °C for 8 min. Throw beads away and analyze by immunoblotting.

BUBR1 mRNA = BUBR1 mRNA stability assay with Actinomycin D; assay type: cell-based, human; conditions: Fig. 4h, +Act D (shCtrl+Act D or shPTBP1#1+Act D), shCtrl = 1
Protocol: RNA preparation was performed as described. Total RNA was extracted using Trizol reagent (TaKaRa) following the manufacturer’s instructions. cDNA was generated with M-MLV reverse transcriptase (Promega, catalog no. M170B). Reverse transcription with PCR (RT-PCR) was performed with SYBR Green Real-Time PCR Master Mix (TaKaRa). RT-PCR was carried out on a QuantStudio 3 Real-Time-PCR Instrument (ABI). Data were analyzed and further processed in QuantStuido Design and Analysis Software and GraphPad Prism v.7. Fold change in gene expression over control samples was calculated using the 2^–ΔΔCt method, where β-actin Ct values were used as an internal control. The primer sequences for PCR, synthesized by Comate Bioscience, were as follows: […]

BUBR1
Relative percentage of SA-β-gal positive cells (HGADFN003 cells [1]; replicate 1): 48%
Relative percentage of SA-β-gal positive cells (HGADFN003 cells [1]; replicate 2): 49%
Relative percentage of SA-β-gal positive cells (HGADFN003 cells [1]; replicate 3): 50%
Relative percentage of SA-β-gal positive cells (HGADFN003 cells [1]; replicate 4): 42%
Relative percentage of aneuploid cells ([2]; Fig.1p, IMR90, Vector 6, 5, 8, replicate 1): 5%
Relative percentage of aneuploid cells ([2]; Fig.1p, IMR90, Vector 6, 5, 8, replicate 2): 5%
Relative percentage of aneuploid cells ([2]; Fig.1p, IMR90, Vector 6, 5, 8, replicate 3): 7%
Relative percentage of aneuploid cells ([2]; Fig.1p, IMR90, progerin+BUBR1, replicate 1): 25%
Relative percentage of aneuploid cells ([2]; Fig.1p, IMR90, progerin+BUBR1, replicate 2): 17%
Relative percentage of aneuploid cells ([2]; Fig.1p, IMR90, progerin+BUBR1, replicate 3): 22%
Relative percentage of aneuploid cells ([2]; Fig.1q, HGADFN003, Vector 29, 35, 32, P=0.0053, replicate 1): 21%
Relative percentage of aneuploid cells ([2]; Fig.1q, HGADFN003, Vector 29, 35, 32, P=0.0053, replicate 2): 17%
Relative percentage of aneuploid cells ([2]; Fig.1q, HGADFN003, Vector 29, 35, 32, P=0.0053, replicate 3): 14%
Relative percentage of Ki67 positive cells (IMR90 cells [3]; Vector 67, 75, 60, P vs Vector: BUBR1 0.803, progerin 0.0018, replicate 1): 64%
Relative percentage of Ki67 positive cells (IMR90 cells [3]; Vector 67, 75, 60, P vs Vector: BUBR1 0.803, progerin 0.0018, replicate 2): 78%
Relative percentage of Ki67 positive cells (IMR90 cells [3]; Vector 67, 75, 60, P vs Vector: BUBR1 0.803, progerin 0.0018, replicate 3): 65%
Relative percentage of Ki67 positive cells (IMR90 cells [3]; progerin+BUBR1, P=0.0042 vs progerin, replicate 1): 48%
Relative percentage of Ki67 positive cells (IMR90 cells [3]; progerin+BUBR1, P=0.0042 vs progerin, replicate 2): 51%
Relative percentage of Ki67 positive cells (IMR90 cells [3]; progerin+BUBR1, P=0.0042 vs progerin, replicate 3): 45%
Relative percentage of SA-β-gal positive cells (IMR90 cells [4]; Vector 2, 1, 2, P vs Vector: BUBR1 0.2302, progerin 0.0003, replicate 1): 3%
Relative percentage of SA-β-gal positive cells (IMR90 cells [4]; Vector 2, 1, 2, P vs Vector: BUBR1 0.2302, progerin 0.0003, replicate 2): 2%
Relative percentage of SA-β-gal positive cells (IMR90 cells [4]; Vector 2, 1, 2, P vs Vector: BUBR1 0.2302, progerin 0.0003, replicate 3): 2%
Relative percentage of SA-β-gal positive cells (IMR90 cells [4]; progerin+BUBR1, P=0.0026 vs progerin, replicate 1): 15%
Relative percentage of SA-β-gal positive cells (IMR90 cells [4]; progerin+BUBR1, P=0.0026 vs progerin, replicate 2): 18%
Relative percentage of SA-β-gal positive cells (IMR90 cells [4]; progerin+BUBR1, P=0.0026 vs progerin, replicate 3): 20%
Relative percentage of Ki67 positive cells (HGADFN003 cells [5]; replicate 1): 78%
Relative percentage of Ki67 positive cells (HGADFN003 cells [5]; replicate 2): 74%
Relative percentage of Ki67 positive cells (HGADFN003 cells [5]; replicate 3): 67%

progerin-C36: truncated progerin-C, aa residues 579–614, used for the design of UPCP (YNLRSRTVLCGTCGQPADKASASGSGAQSPQNCSIM)
block of progerin–BUBR1 binding by truncated progerin-C [6]: could block the binding of progerin and BUBR1

Cc1c2oc3c(C)ccc(C(=O)N[C@@H]4C(=O)N[C@H](C(C)C)C(=O)N5CCC[C@H]5C(=O)N(C)CC(=O)N(C)[C@@H](C(C)C)C(=O)O[C@@H]4C)c3nc-2c(C(=O)N[C@@H]2C(=O)N[C@H](C(C)C)C(=O)N3CCC[C@H]3C(=O)N(C)CC(=O)N(C)[C@@H](C(C)C)C(=O)O[C@@H]2C)c(N)c1=O [ActD] (I: T[dV]P[Sar][NMeV] / II: T[dV]P[Sar][NMeV]; ester I:1-I:C, II:1-II:C; linker I:N-II:N via Actinocin(9to1))
BUBR1 relative (to β-actin) mRNA level (2-ΔΔCt) (BUBR1 mRNA; replicate 1): 0.6794
BUBR1 relative (to β-actin) mRNA level (2-ΔΔCt) (BUBR1 mRNA; replicate 2): 0.7373
BUBR1 relative (to β-actin) mRNA level (2-ΔΔCt) (BUBR1 mRNA; replicate 3): 0.615
